Test results reported in patent publication US20260355325A1, “DIMER COMPOUNDS” (KESMALEA THERAPEUTICS LIMITED, priority 2023, published 2026).

Target: T1, BRD4 (Homo sapiens, UniProt O60885)
T1 construct: Flp-In LgBiT HEK293 cells; lytic luminescence degradation readout
Assay: BRD4 HiBiT Assay (degradation of endogenous BRD4 in HiBiT knock-in Flp-In LgBiT HEK293 cells)
Type: cell-based
Excerpt: The purpose of the BRD4 HiBiT Assay was to assess the binding affinity of the dimer to BRD4 and subsequent protein degradation.
BRD4 HiBiT cells (Flp-In™ LgBiT and KI HiBiT) were generated by first creating a Flp-In™293 stable cell line, transfecting in the pFRT serial vector containing an integrated Flp recombination target (FRT) site (Thermo Fisher Scientific, Waltham, MA) to HEK293 cells (ATCC, Manassas, VA). The LgBiT expression sequence (Promega Corporation, Madison, WA) was then introduced into the genome via Flp recombinase-mediated DNA recombination at the FRT site. HiBiT sequence (Promega Corporation, Madison, WA) was then knocked in to the endogenous BRD4 protein in the Flp-In™ LgBiT HEK293 cells and successful clones verifying by sequencing. Work on BRD4 HiBiT cell line was performed under license from Promega Corporation (Madison, WA). Cells were maintained in DMEM (Invitrogen™, Waltham, MA) supplemented with 10% FBS (AusGeneX, Molendinar, Australia) and 1% penicillin/streptomycin (Invitrogen™, Waltham, MA) in a humidified incubator at 5% CO2, 37° C.
Compounds were dissolved in DMSO (10 mM), serially diluted from 10 mM to 1.5 nM, and pre-incubated for 2 hours. Exponentially growing cells were seeded at 1×10^4 cells per well of 384 well plate (Corning, New York #3570). Cells were treated with compound for 6 or 48 hours. Following treatment, Nano-Glo® HiBiT Lytic Detection reagent (Promega Corporation, Madison, WA) was added according to manufacturer's instructions, and signal read using BMG CLARIOstar plate reader (BMG Labtech, Ortenburg, Germany). Each data point was performed in duplicate for every experiment. A DC50 value was calculated from linear regression analysis of the plots.

[1] = BRD4 degradation in cells at 6-hour timepoint
[2] = BRD4 degradation in cells at 48-hour timepoint

DC50 [1] [µM] | DC50 [2] [µM] | Compound
– | 1 to 10 | Cc1cc(C(C(=O)N2C[C@H](O)C[C@H]2C(=O)NCc2ccc(Cl)cc2B2O[C@H]3C[C@H]4C[C@H](C4(C)C)[C@@]3(CCNC(=O)C[C@@H]3N=C(c4ccc(Cl)cc4)c4c(sc(C)c4C)-n4c(C)nnc43)O2)C(C)C)on1 (single isomer, unassigned) [Example 10]
< 0.1 | – | Cc1ncsc1-c1ccc(CNC(=O)[C@@H]2C[C@@H](O)CN2C(=O)C(c2cc(OCc3ccccc3B3O[C@@H]4C[C@@H]5C[C@@H](C5(C)C)[C@]4(CCNC(=O)C[C@@H]4N=C(c5ccc(Cl)cc5)c5c(sc(C)c5C)-n5c(C)nnc54)O3)no2)C(C)C)cc1 (single isomer, unassigned) [Example 13]
< 0.1 | – | Cc1sc2c(c1C)C(c1ccc(Cl)cc1)=N[C@@H](CC(=O)NCCC[C@@]13OB(c4ccccc4CCC4CN(c5ccc(N6CCC(=O)NC6=O)cc5)C4)O[C@@H]1C[C@@H]1C[C@H]3C1(C)C)c1nnc(C)n1-2 [Example 8, 2-((S)-4-(4-chlorophenyl)-2,3,9-trimethyl-6H-thieno[3,2-f][1,2,4]triazolo[4,3-a][1,4]diazepin-6-yl)-N-(3-((3aS,4S,6S,7aR)-2-(2-(2-(1-(4-(2,4-dioxotetrahydropyrimidin-1(2H)-yl)phenyl)azetidin-3-yl)ethyl)phenyl)-5,5-dimethyltetrahydro-4,6-methanobenzo[d][1,3,2]dioxaborol-3a(4H)-yl)propyl)acetamide]
– | 1 to 10 | Cc1cc(C(C(=O)N2C[C@H](O)C[C@H]2C(=O)NCc2ccc(Cl)cc2OC[C@]23OB(c4ccccc4CCNC(=O)C[C@@H]4N=C(c5ccc(Cl)cc5)c5c(sc(C)c5C)-n5c(C)nnc54)O[C@H]2C[C@H]2C[C@@H]3C2(C)C)C(C)C)on1 (single isomer, unassigned) [Example 11]
< 0.1 | – | Cc1ncsc1-c1ccc([C@H](C)NC(=O)[C@@H]2C[C@@H](O)CN2C(=O)[C@H](c2cc(OCc3ccccc3B3O[C@@H]4[C@H]5CC[C@H](C5)[C@]4(CCCNC(=O)C[C@@H]4N=C(c5ccc(Cl)cc5)c5c(sc(C)c5C)-n5c(C)nnc54)O3)no2)C(C)C)cc1 (single isomer, unassigned) [Example 9]
– | 1 to 10 | Cc1cc([C@H](C(=O)N2C[C@H](O)C[C@H]2C(=O)NCc2ccc(Cl)cc2OCCCB2O[C@H]3C[C@H]4C[C@H](C4(C)C)[C@@]3(CCNC(=O)C[C@@H]3N=C(c4ccc(Cl)cc4)c4c(sc(C)c4C)-n4c(C)nnc43)O2)C(C)C)on1 [Example 12, (2S,4R)—N-(4-chloro-2-(3-((3aR,4R,6R,7aS)-3a-(2-(2-((S)-4-(4-chlorophenyl)-2,3,9-trimethyl-6H-thieno[3,2-f][1,2,4]triazolo[4,3-a][1,4]diazepin-6-yl)acetamido)ethyl)-5,5-dimethylhexahydro-4,6-methanobenzo[d][1,3,2]dioxaborol-2-yl)propoxy)benzyl)-4-hydroxy-1-((R)-3-methyl-2-(3-methylisoxazol-5-yl)butanoyl)pyrrolidine-2-carboxamide]

Second part, the compound before the results:

Compound | DC50 [1] [µM] | DC50 [2] [µM]
Cc1ncsc1-c1ccc(CNC(=O)[C@@H]2C[C@@H](O)CN2C(=O)[C@@H](NC(=O)CCc2ccccc2B2O[C@H]3C[C@H]4C[C@H](C4(C)C)[C@@]3(CCCNC(=O)C[C@@H]3N=C(c4ccc(Cl)cc4)c4c(sc(C)c4C)-n4c(C)nnc43)O2)C(C)(C)C)cc1 [Example 5, (2S,4R)-1-((S)-2-(3-(2-((3aR,4R,6R,7aS)-3a-(3-(2-((S)-4-(4-chlorophenyl)-2,3,9-trimethyl-6H-thieno[3,2-f][1,2,4]triazolo[4,3-a][1,4]diazepin-6-yl)acetamido)propyl)-5,5-dimethylhexahydro-4,6-methanobenzo[d][1,3,2]dioxaborol-2-yl)phenyl)propanamido)-3,3-dimethylbutanoyl)-4-hydroxy-N-(4-(4-methylthiazol-5-yl)benzyl)pyrrolidine-2-carboxamide] | < 0.1 | –
Cc1sc2c(c1C)C(c1ccc(Cl)cc1)=N[C@@H](CC(=O)NCC[C@]13OB(c4ccccc4CCCC(=O)Nc4cccc5c4C(=O)N(C4CCC(=O)NC4=O)C5=O)O[C@H]1C[C@H]1C[C@@H]3C1(C)C)c1nnc(C)n1-2 (mixture of isomers) [Example 4, 4-(2-((3aR,4R,6R,7aS)-3a-(2-(2-((S)-4-(4-chlorophenyl)-2,3,9-trimethyl-6H-thieno[3,2-f][1,2,4]triazolo[4,3-a][1,4]diazepin-6-yl)acetamido)ethyl)-5,5-dimethylhexahydro-4,6-methanobenzo[d][1,3,2]dioxaborol-2-yl)phenyl)-N-(2-(2,6-dioxopiperidin-3-yl)-1,3-dioxoisoindolin-4-yl)butanamide] | < 0.1 | –
Cc1ncsc1-c1ccc(CNC(=O)[C@@H]2C[C@@H](O)CN2C(=O)[C@@H](NC(=O)CCc2ccccc2B2O[C@H]3C[C@H]4C[C@H](C4(C)C)[C@@]3(CCNC(=O)C[C@@H]3N=C(c4ccc(Cl)cc4)c4c(sc(C)c4C)-n4c(C)nnc43)O2)C(C)(C)C)cc1 [Example 1, (2S,4R)-1-((S)-2-(3-(2-((3aR,4R,6R,7aS)-3a-(2-(2-((S)-4-(4-chlorophenyl)-2,3,9-trimethyl-6H-thieno[3,2-f][1,2,4]triazolo[4,3-a][1,4]diazepin-6-yl)acetamido)ethyl)-5,5-dimethylhexahydro-4,6-methanobenzo[d][1,3,2]dioxaborol-2-yl)phenyl)propanamido)-3,3-dimethylbutanoyl)-4-hydroxy-N-(4-(4-methylthiazol-5-yl)benzyl)pyrrolidine-2-carboxamide] | < 0.1 | –
Cc1sc2c(c1C)C(c1ccc(Cl)cc1)=N[C@@H](CC(=O)NCCC[C@]13OB(c4ccccc4CCCC(=O)Nc4cccc5c4C(=O)N(C4CCC(=O)NC4=O)C5=O)O[C@H]1C[C@H]1C[C@@H]3C1(C)C)c1nnc(C)n1-2 (stereo partly drawn) [Example 2, 4-(2-((3aR,4R,6R,7aS)-3a-(3-(2-((S)-4-(4-chlorophenyl)-2,3,9-trimethyl-6H-thieno[3,2-f][1,2,4]triazolo[4,3-a][1,4]diazepin-6-yl)acetamido)propyl)-5,5-dimethylhexahydro-4,6-methanobenzo[d][1,3,2]dioxaborol-2-yl)phenyl)-N-(2-(2,6-dioxopiperidin-3-yl)-1,3-dioxoisoindolin-4-yl)butanamide] | < 0.1 | –
Cc1ncsc1-c1ccc([C@H](C)NC(=O)[C@@H]2C[C@@H](O)CN2C(=O)[C@@H](NC(=O)CCc2ccccc2B2O[C@H]3C[C@H]4C[C@H](C4(C)C)[C@@]3(CCNC(=O)C[C@@H]3N=C(c4ccc(Cl)cc4)c4c(sc(C)c4C)-n4c(C)nnc43)O2)C(C)(C)C)cc1 [Example 6, (2S,4R)-1-((S)-2-(3-(2-((3aR,4R,6R,7aS)-3a-(2-(2-((S)-4-(4-chlorophenyl)-2,3,9-trimethyl-6H-thieno[3,2-f][1,2,4]triazolo[4,3-a][1,4]diazepin-6-yl)acetamido)ethyl)-5,5-dimethylhexahydro-4,6-methanobenzo[d][1,3,2]dioxaborol-2-yl)phenyl)propanamido)-3,3-dimethylbutanoyl)-4-hydroxy-N—((S)-1-(4-(4-methylthiazol-5-yl)phenyl)ethyl)pyrrolidine-2-carboxamide] | < 0.1 | –
Cc1ncsc1-c1ccc([C@H](C)NC(=O)[C@@H]2C[C@@H](O)CN2C(=O)[C@@H](NC(=O)CCc2ccccc2B2O[C@H]3C[C@H]4C[C@H](C4(C)C)[C@@]3(CCCNC(=O)C[C@@H]3N=C(c4ccc(Cl)cc4)c4c(sc(C)c4C)-n4c(C)nnc43)O2)C(C)(C)C)cc1 [Example 7, (2S,4R)-1-((S)-2-(3-(2-((3aR,4R,6R,7aS)-3a-(3-(2-((S)-4-(4-chlorophenyl)-2,3,9-trimethyl-6H-thieno[3,2-f][1,2,4]triazolo[4,3-a][1,4]diazepin-6-yl)acetamido)propyl)-5,5-dimethylhexahydro-4,6-methanobenzo[d][1,3,2]dioxaborol-2-yl)phenyl)propanamido)-3,3-dimethylbutanoyl)-4-hydroxy-N—((S)-1-(4-(4-methylthiazol-5-yl)phenyl)ethyl)pyrrolidine-2-carboxamide] | < 0.1 | –
Cc1ncsc1-c1ccc(CNC(=O)[C@@H]2C[C@@H](O)CN2C(=O)[C@@H](NC(=O)CCc2cccc(F)c2B2O[C@H]3C[C@H]4C[C@H](C4(C)C)[C@@]3(CCNC(=O)C[C@@H]3N=C(c4ccc(Cl)cc4)c4c(sc(C)c4C)-n4c(C)nnc43)O2)C(C)(C)C)cc1 [Example 3, (2S,4R)-1-((2S)-2-(3-(2-((3aR,4R,6R,7aS)-3a-(2-(2-((6S)-4-(4-chlorophenyl)-2,3,9-trimethyl-6H-thieno[3,2-f][1,2,4]triazolo[4,3-a][1,4]diazepin-6-yl)acetamido)ethyl)-5,5-dimethylhexahydro-4,6-methanobenzo[d][1,3,2]dioxaborol-2-yl)-3-fluorophenyl)propanamido)-3,3-dimethylbutanoyl)-4-hydroxy-N-(4-(4-methylthiazol-5-yl)benzyl)pyrrolidine-2-carboxamide] | < 0.1 | –
